The text below walks through data of patent US12398132B2, “Derivatives of 4-(imidazo[1,2-a]pyridin-3-yl)-n-(pyridinyl)pyrimidin-2-amine as therapeutic agents” (AUCENTRA THERAPEUTICS PTY LTD, priority 2019, dated 2025).

Read-outs that look alike come from different tables or passages of the source.

Test [1] relates to MV-4-11. Put plainly: Proliferation assay (resazurin/MTT), MV-4-11. The test is classed as cell-based. The settings on record: Homo sapiens, MV4-11, read-out: 72 h Growth inhibition GI50, MV-4-11 cells. Background: Alamar Blue is a resazurin reagent that responds to reducing activity.
The subject of test [2] is U937. Put plainly: Proliferation assay (resazurin/MTT), U937. The test is classed as cell-based. As to conditions: Homo sapiens, U-937, read-out: 72 h Growth inhibition GI50, U937 cells.
The target of test [3] is T1, FLT3(ITD) (Homo sapiens, UniProt P36888).
T1 sequence (P36888 1-993): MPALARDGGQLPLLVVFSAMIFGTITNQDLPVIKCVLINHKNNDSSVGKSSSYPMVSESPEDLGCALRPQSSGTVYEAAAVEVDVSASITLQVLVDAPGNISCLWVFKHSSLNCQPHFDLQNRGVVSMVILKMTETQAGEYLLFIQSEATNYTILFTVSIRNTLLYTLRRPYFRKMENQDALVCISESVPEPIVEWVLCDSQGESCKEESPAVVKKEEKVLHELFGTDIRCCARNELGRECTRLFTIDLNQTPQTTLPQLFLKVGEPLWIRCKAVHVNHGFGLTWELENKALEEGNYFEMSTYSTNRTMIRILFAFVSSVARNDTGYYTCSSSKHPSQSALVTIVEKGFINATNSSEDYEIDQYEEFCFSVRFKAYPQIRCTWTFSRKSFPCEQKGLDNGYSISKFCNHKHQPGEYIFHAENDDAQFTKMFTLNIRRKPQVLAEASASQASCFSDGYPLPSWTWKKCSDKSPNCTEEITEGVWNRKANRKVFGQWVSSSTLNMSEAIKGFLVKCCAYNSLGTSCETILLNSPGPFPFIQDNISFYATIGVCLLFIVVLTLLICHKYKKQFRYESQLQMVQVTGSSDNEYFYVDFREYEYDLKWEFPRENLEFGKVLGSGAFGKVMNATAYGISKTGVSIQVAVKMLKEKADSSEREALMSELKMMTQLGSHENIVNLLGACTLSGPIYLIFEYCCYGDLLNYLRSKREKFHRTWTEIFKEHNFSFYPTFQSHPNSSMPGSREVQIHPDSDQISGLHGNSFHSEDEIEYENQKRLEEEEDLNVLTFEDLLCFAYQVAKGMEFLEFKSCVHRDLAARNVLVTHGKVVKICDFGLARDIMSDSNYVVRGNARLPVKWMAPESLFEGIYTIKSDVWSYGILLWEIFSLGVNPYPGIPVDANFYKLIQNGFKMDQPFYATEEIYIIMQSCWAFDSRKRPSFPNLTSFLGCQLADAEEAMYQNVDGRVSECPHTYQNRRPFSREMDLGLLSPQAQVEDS
Put plainly: ADP Glo kinase assay, FLT3(ITD). The test is classed as biochemical. As to conditions: apparent Ki calculated from Km (ATP) and IC50, read-out: FLT3 inhibition Ki.
Protocol: Inhibition of FLT3(WT), FLT3(ITD) and FLT3(D835Y) and CDKs were determined using ADP Glo Kinase assays (Promega Corporation, Madison, WI, USA). […] The kinase reactions are run for an optimised time period (FLT3-WT: 120 min, FLT3-ITD: 80 min, FLT3-D835Y: 100 min) at room temperature and then the reaction was stopped by adding 5 μL of ADP Glo reagent. […] Positive and negative controls were performed in 0.5% DMSO in the presence and absence of each FLT3 kinase, respectively. […] Half-maximal inhibition (IC50) values were calculated using a 4-parameter logistic non-linear regression model with Graphpad prism (Version 6.0). Apparent inhibition constants (Ki) values were calculated from Km (ATP) and IC50 values for the respective kinases.

The target in test [4] is CDK1B (Homo sapiens, UniProt P06493).
For test [5], the target named is CDK2E1 (Homo sapiens, UniProt P24941). As to conditions: 1 µM.
In test [6] the target is CDK9/CyclinT1 (Homo sapiens, UniProt P50750). Put plainly: ADP Glo kinase assay, CDK9/CyclinT1. Type of test: biochemical. As to conditions: CDK9T1; for remaining activity at 1 µM: compound at 1 μM (values marked *), read-out: residual enzymatic activity (%) at 1 μM*. For orientation: ADP-Glo turns the ADP formed in a reaction into a luminescent signal.
The target in test [7] is CDK7HMAT1 (Homo sapiens, UniProt P50613).
Test [8] has as its target CDK4/D1 (Homo sapiens, UniProt P11802). Briefly: ADP Glo kinase assay, CDK4/D1. Type of test: biochemical. As to conditions: CDK4D1; for remaining activity at 1 µM: compound at 1 μM (values marked *), read-out: residual enzymatic activity (%) at 1 μM*.
Test [9] deals with CDK6/D3 (Homo sapiens, UniProt Q00534). Put plainly: ADP Glo kinase assay, CDK6/D3. The test is classed as biochemical. The settings on record: CDK6D3; for remaining activity at 1 µM: compound at 1 μM (values marked *), read-out: residual enzymatic activity (%) at 1 μM*.
Where [10] appears, read: apparent Ki calculated from Km (ATP) and IC50, read-out: CDK inhibition Ki.
Where [11] appears, read: compound at 10 μM, read-out: residual enzymatic activity (%) at 10 μM.

Sequence of CDK7HMAT1 (P50613 whole entry): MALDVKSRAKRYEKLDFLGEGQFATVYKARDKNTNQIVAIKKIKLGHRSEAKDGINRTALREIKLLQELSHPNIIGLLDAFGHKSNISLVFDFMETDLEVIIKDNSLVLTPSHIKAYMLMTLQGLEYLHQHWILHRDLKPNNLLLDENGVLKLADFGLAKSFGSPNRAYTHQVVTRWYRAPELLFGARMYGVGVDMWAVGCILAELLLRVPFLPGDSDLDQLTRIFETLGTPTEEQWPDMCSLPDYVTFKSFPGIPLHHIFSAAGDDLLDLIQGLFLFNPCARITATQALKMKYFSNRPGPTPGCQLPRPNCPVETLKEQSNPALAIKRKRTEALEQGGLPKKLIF
Sequence of CDK7HMAT1 (P51946 whole entry partner): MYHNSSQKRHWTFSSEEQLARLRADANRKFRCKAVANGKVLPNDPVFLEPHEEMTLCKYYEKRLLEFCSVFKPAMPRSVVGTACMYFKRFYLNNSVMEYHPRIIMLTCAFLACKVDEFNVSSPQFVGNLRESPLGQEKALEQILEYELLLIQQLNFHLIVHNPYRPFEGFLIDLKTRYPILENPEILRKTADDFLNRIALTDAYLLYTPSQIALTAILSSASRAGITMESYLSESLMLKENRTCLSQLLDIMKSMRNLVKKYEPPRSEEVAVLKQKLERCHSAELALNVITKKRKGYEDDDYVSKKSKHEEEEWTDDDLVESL
Sequence of CDK7HMAT1 (P51948 whole entry partner): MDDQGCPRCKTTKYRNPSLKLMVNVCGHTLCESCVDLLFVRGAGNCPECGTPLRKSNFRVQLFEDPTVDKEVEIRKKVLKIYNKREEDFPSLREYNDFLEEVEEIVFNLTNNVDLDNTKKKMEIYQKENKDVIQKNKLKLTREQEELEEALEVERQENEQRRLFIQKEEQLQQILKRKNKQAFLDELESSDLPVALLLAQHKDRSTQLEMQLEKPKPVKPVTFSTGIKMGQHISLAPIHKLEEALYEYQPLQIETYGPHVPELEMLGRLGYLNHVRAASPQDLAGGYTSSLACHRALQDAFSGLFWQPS
Sequence of CDK9/CyclinT1 (P50750 whole entry, species assumed): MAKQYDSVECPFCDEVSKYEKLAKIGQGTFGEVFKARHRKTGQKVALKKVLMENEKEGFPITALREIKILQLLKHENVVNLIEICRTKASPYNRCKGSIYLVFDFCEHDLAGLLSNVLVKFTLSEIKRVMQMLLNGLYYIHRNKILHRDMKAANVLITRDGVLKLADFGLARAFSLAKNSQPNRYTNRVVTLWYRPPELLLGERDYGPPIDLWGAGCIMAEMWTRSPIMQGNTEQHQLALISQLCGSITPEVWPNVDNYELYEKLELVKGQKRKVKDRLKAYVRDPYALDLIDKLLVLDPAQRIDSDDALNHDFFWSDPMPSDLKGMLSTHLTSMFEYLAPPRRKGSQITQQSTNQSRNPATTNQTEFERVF
Sequence of CDK9/CyclinT1 (O60563 whole entry partner, species assumed): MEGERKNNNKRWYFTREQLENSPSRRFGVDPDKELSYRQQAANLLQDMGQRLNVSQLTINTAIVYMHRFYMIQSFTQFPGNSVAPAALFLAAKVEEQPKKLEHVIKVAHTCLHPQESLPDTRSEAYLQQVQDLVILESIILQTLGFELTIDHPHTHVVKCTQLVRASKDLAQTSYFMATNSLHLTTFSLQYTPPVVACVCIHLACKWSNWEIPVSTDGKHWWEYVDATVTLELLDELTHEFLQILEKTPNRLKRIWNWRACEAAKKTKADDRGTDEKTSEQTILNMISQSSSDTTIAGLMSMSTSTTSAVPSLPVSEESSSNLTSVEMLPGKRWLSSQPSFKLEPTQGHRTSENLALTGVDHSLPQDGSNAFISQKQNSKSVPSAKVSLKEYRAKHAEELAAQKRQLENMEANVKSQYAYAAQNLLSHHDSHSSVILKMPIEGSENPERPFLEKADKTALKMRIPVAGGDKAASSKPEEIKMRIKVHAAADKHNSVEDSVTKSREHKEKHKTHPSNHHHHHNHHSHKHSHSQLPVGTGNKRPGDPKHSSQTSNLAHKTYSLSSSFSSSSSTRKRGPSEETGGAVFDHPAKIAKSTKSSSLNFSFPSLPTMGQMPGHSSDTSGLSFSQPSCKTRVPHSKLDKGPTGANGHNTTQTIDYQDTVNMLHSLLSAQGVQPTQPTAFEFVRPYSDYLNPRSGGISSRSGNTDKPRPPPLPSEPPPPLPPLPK
Sequence of CDK1B (P06493 whole entry): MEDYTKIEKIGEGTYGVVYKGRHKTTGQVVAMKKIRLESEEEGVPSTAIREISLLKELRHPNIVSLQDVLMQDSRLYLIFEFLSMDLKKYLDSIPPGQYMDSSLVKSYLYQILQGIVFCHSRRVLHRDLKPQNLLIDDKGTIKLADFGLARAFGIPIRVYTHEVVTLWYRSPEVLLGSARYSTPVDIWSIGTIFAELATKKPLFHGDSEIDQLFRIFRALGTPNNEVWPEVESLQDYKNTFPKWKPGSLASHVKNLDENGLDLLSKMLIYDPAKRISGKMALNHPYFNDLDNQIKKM
Sequence of CDK1B (P14635 whole entry partner): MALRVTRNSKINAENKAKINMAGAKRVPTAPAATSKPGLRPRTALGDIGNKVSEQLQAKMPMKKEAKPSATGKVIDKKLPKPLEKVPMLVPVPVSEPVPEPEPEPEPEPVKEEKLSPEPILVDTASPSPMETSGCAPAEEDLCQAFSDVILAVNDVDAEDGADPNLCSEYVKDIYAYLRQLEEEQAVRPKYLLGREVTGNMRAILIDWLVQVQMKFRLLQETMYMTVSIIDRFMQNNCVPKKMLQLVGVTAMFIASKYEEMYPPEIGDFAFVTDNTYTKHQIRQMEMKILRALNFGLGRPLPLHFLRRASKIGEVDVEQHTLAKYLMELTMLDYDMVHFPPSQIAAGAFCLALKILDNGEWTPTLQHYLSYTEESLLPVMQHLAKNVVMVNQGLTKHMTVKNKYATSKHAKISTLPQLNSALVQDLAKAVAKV
Sequence of CDK6/D3 (Q00534 whole entry, species assumed): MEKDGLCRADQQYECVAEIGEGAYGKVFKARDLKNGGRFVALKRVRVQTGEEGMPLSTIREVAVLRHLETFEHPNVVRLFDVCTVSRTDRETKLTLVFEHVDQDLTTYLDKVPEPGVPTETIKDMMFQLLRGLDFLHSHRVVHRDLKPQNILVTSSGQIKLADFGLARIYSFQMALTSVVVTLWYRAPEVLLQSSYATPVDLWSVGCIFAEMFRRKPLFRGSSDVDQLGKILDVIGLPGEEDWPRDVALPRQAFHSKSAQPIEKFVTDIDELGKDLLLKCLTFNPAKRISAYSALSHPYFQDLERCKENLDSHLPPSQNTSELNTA
Sequence of CDK6/D3 (P30281 whole entry partner, species assumed): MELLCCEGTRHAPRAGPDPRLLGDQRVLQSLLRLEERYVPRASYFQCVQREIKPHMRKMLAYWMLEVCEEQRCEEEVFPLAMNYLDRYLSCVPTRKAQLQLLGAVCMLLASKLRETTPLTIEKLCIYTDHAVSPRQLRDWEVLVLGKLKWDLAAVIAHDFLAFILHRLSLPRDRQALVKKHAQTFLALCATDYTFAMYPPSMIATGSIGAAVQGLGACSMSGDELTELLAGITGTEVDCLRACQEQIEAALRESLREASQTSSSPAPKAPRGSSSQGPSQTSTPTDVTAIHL
Sequence of CDK4/D1 (P11802 whole entry, species assumed): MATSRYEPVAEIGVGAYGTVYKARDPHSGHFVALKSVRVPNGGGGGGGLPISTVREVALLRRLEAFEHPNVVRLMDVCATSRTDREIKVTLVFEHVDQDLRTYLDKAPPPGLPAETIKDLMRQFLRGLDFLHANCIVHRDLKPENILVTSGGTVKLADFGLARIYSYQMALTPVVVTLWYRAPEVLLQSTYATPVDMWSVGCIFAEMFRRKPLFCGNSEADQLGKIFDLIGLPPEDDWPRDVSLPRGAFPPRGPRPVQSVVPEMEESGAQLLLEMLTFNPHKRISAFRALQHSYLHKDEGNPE
Sequence of CDK4/D1 (P24385 whole entry partner, species assumed): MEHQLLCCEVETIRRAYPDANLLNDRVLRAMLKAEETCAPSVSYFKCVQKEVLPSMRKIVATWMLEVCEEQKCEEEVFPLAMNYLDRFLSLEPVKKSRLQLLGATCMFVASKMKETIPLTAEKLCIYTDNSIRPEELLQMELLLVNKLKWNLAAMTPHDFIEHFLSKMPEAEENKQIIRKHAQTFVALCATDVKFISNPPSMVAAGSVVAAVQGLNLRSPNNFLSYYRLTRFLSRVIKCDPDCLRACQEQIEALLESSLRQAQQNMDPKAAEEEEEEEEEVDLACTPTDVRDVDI

For the compound `CC(=O)N1CCN(c2ccc(Nc3nccc(-c4cnc5ccc(-c6ccn(C)n6)cn45)n3)nc2)CC1` [Cmpd 58, 1-(4-(6-((4-(6-(1-Methyl-1H-pyrazol-3-yl)imidazo[1,2-a]pyridin-3-yl)pyrimidin-2-yl)amino)pyridin-3-yl)piperazin-1-yl)ethan-1-one], the GI50 (as a rule, the concentration at which growth is held to half of that of the control) worked out at 9 nM in [1] and 206 nM in test [2]. Also, the Ki in test [3] is 49 nM.
In the case of `CCC(=O)N1CCN(c2ccc(Nc3nccc(-c4cnc5ccccn45)n3)nc2)CC1` [Cmpd 56, 1-(4-(6-((4-(Imidazo[1,2-a]pyridin-3-yl)pyrimidin-2-yl)amino)pyridin-3-yl)piperazin-1-yl)propan-1-one], the results for the GI50 in [1] and in [2] were 22 nM and 339 nM, respectively. Further, in test [3], the Ki is 16 nM.
Consider `CC(=O)N1CCN(c2ccc(Nc3nccc(-c4cnc5ccc(-c6c[nH]c7ncccc67)cn45)n3)nc2)CC1` [Cmpd 42, 1-(4-(6-((4-(6-(1H-pyrrolo[2,3-b]pyridin-3-yl)imidazo[1,2-a]pyridin-3-yl)pyrimidin-2-yl)amino)pyridin-3-yl)piperazin-1-yl)ethan-1-one], for which the GI50 in [1] amounted to 5 nM; in test [2], 1560 nM. The activity came out at 95% in [4] (1 µM), 46% in test [5] and 80% in test [7] (1 µM). Moreover, the Ki in [6] (setting [10]) is 607 nM. The remaining activity at 1 µM is 52% in test [8] and 64% in test [9].
As for `CC(=O)N1CCN(c2ccc(Nc3ncc(F)c(-c4cnc5ccc(F)cn45)n3)nc2)CC1` [Cmpd 30, 1-(4-(6-((5-Fluoro-4-(6-fluoroimidazo[1,2-a]pyridin-3-yl)pyrimidin-2-yl)amino)pyridin-3-yl)piperazin-1-yl)ethan-1-one], the concentration for 50% growth inhibition (GI50) in [1] stood at 72 nM; in test [2], 4040 nM. Besides, the results for the activity in test [4] (1 µM), in test [5] and in test [7] (1 µM) were 96%, 51% and 77%, respectively. The results for the remaining activity at 1 µM in [6], in test [8] and in test [9] were 33%, 55% and 58%, respectively.
`CC(=O)N1CCN(c2ccc(Nc3nccc(-c4cnc5ccc(-c6csc7ccccc67)cn45)n3)nc2)CC1` [Cmpd 35, 1-(4-(6-((4-(6-(Benzo[b]thiophen-3-yl)imidazo[1,2-a]pyridin-3-yl)pyrimidin-2-yl)amino)pyridin-3-yl)piperazin-1-yl)ethan-1-one]: the concentration for 50% growth inhibition (GI50) in test [1] was 7 nM; in [2] it was > 10000 nM. For the same compound, the activity in test [4] (1 µM) turned out to be 81%; in test [5], 100%; in test [7] (1 µM), 81%. The remaining activity at 1 µM in [6] was 91%; in [8] it was 77%; in [9] it was 76%.
On to `CC(=O)N1CCN(c2ccc(Nc3ncc(F)c(-c4cnc5ccccn45)n3)nc2)CC1` [Cmpd 29, 1-(4-(6-((5-Fluoro-4-(imidazo[1,2-a]pyridin-3-yl)pyrimidin-2-yl)amino)pyridin-3-yl)piperazin-1-yl)ethan-1-one], for which the GI50 in test [1] came out at 43 nM; in [2], 393 nM. Also, the activity in [4] (1 µM) was 100%; in test [5] it was 47%; in test [7] (1 µM), 82%. In addition, the values for the remaining activity at 1 µM in test [6], in test [8] and in [9] were 36%, 59% and 59%, respectively.
Turning to `CC(=O)N1CCN(c2ccc(Nc3nccc(-c4cnc5ccc(-c6c[nH]c7ccccc67)cn45)n3)nc2)CC1` [Cmpd 41, 1-(4-(6-((4-(6-(1H-Indol-3-yl)imidazo[1,2-a]pyridin-3-yl)pyrimidin-2-yl)amino)pyridin-3-yl)piperazin-1-yl)ethan-1-one], the results for the GI50 in test [1] and in test [2] were 1 nM and 1280 nM, respectively. Also, the results for the activity in test [4] (1 µM), in [5] and in [7] (1 µM) were 98%, 81% and 79%, respectively. The remaining activity at 1 µM was determined as 42% in test [6], 54% in test [8] and 89% in test [9].
As for `CC(=O)N1CCN(c2ccc(Nc3nccc(-c4cnc5ccc(-c6cccc7[nH]ccc67)cn45)n3)nc2)CC1` [Cmpd 36, 1-(4-(6-((4-(6-(1H-Indol-4-yl)imidazo[1,2-a]pyridin-3-yl)pyrimidin-2-yl)amino)pyridin-3-yl)piperazin-1-yl)ethan-1-one], the GI50 in test [1] was 12 nM; in [2], 1360 nM. Further, the activity in test [4] (1 µM) stood at 96%; in test [5], 89%; in test [7] (1 µM), 96%. In addition, the remaining activity at 1 µM in [6] was 99%; in test [8] it was 58%; in test [9], 76%.
Regarding `CC(=O)N1CCN(c2ccc(Nc3nccc(-c4cnc5ccc(-c6cn(C)c7ccccc67)cn45)n3)nc2)CC1` [Cmpd 40, 1-(4-(6-((4-(6-(1-Methyl-1H-indol-3-yl)imidazo[1,2-a]pyridin-3-yl)pyrimidin-2-yl)amino)pyridin-3-yl)piperazin-1-yl)ethan-1-one], the GI50 in test [1] was found to be 1 nM; in [2] it was 1340 nM. Besides, the activity stood at 97% in test [4] (1 µM), 93% in [5] and 104% in [7] (1 µM). In addition, the remaining activity at 1 µM worked out at 82% in test [6], 55% in test [8] and 78% in [9].
Consider `CC(=O)N1CCN(c2ccc(Nc3nccc(-c4cnc5ccc(-c6cc7ccccc7[nH]6)cn45)n3)nc2)CC1` [Cmpd 37, 1-(4-(6-((4-(6-(1H-Indol-2-yl)imidazo[1,2-a]pyridin-3-yl)pyrimidin-2-yl)amino)pyridin-3-yl)piperazin-1-yl)ethan-1-one], for which the concentration for 50% growth inhibition (GI50) in test [1] amounted to 10 nM; in test [2], 2420 nM. Moreover, the figures for the activity in [4] (1 µM), in [5] and in test [7] (1 µM) were 96%, 91% and 103%, respectively. Further, the remaining activity at 1 µM is 39% in test [6], 78% in [8] and 78% in test [9].
Take `CC(=O)N1CCN(c2ccc(Nc3nccc(-c4cnc5ccc(-c6cn(S(=O)(=O)c7ccccc7)c7ncccc67)cn45)n3)nc2)CC1` [Cmpd 38, 1-(4-(6-((4-(6-(1-(Phenylsulfonyl)-1H-pyrrolo[2,3-b]pyridin-3-yl)imidazo[1,2-a]pyridin-3-yl)pyrimidin-2-yl)amino)pyridin-3-yl)piperazin-1-yl)ethan-1-one]: the 50% growth inhibitory concentration (GI50) in test [1] is 44 nM; in test [2], 2910 nM. Further, the activity was 99% in test [4] (1 µM), 82% in [5] and 102% in test [7] (1 µM). For the same compound, the remaining activity at 1 µM in test [6] was 85%; in test [8] it was 70%; in [9], 70%.
Consider `CC(=O)N1CCN(c2ccc(Nc3nccc(-c4cnc5ccc(C(F)(F)F)cn45)n3)nc2)CC1` [Cmpd 11, 1-(4-(6-((4-(6-(Trifluoromethyl)imidazo[1,2-a]pyridin-3-yl)pyrimidin-2-yl)amino)pyridin-3-yl)piperazin-1-yl)ethan-1-one], for which the GI50 in test [1] is 14 nM; in test [2], 3900 nM. Also, the results for the activity in [4] (10 µM), in test [5] and in test [7] (10 µM) were 38%, 97% and 60%, respectively. In addition, the figures for the remaining activity at 10 µM in [6] (setting [11]) and in test [8] (setting [11]) were 32% and 46%, respectively. In test [9] (setting [10]), the Ki was > 5 µM.
